According to ChEMBL document CHEMBL4819133, “Exploiting the HSP60/10 chaperonin system as a chemotherapeutic target for colorectal cancer” (Bioorg Med Chem, 2021):

Legend:
[1] = test system: DLD-1; experiment: Cytotoxicity against human DLD-1 cells assessed as reduction in cell viability measured after 48 hrs by AlamarBlue assay; type: functional, cell-based; details: DLD-1, 48 h
[2] = Inhibition of refolded MDH (unknown origin)-mediated oxidation of NADPH in presence of mesoxalic acid treated with compound after refolding of the denatured enzyme; design: species or system Homo sapiens
[3] = Cytotoxicity against human FHs74Int cells assessed as reduction in cell viability measured after 48 hrs by AlamarBlue assay; type: cell-based
[4] = (§1) Cytotoxicity against human HEK293 cells assessed as reduction in cell viability measured after 48 hrs by AlamarBlue assay; type: cell-based; details: HEK293 cells
[5] = test system: FHC; experiment: Cytotoxicity against human FHC cells assessed as reduction in cell viability measured after 48 hrs by AlamarBlue assay; type: cell-based
[6] = target: T1, Thiosulfate sulfurtransferase (Homo sapiens, UniProt Q16762); experiment: Inhibition of refolded Rhodanese (unknown origin)-mediated conversion of cyanide to thiocyanate treated with compound after refolding of the denatured enzyme
T1 sequence (Q16762 whole entry): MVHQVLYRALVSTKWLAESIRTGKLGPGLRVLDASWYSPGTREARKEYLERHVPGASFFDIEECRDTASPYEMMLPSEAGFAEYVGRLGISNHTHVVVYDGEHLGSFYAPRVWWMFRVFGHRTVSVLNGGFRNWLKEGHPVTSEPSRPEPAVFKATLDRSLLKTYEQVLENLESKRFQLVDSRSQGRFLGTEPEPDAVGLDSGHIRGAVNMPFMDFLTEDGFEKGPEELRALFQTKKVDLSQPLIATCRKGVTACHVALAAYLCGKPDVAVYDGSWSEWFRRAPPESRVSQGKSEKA

[7] = target: HSP60/HSP10 (Homo sapiens, UniProt P10809); experiment: Inhibition of human mitochondrial HSP60/10-mediated refolding of the denatured malate dehydrogenase; type: mitochondria, Mitochondria
Sequence of HSP60/HSP10 (P10809 whole entry): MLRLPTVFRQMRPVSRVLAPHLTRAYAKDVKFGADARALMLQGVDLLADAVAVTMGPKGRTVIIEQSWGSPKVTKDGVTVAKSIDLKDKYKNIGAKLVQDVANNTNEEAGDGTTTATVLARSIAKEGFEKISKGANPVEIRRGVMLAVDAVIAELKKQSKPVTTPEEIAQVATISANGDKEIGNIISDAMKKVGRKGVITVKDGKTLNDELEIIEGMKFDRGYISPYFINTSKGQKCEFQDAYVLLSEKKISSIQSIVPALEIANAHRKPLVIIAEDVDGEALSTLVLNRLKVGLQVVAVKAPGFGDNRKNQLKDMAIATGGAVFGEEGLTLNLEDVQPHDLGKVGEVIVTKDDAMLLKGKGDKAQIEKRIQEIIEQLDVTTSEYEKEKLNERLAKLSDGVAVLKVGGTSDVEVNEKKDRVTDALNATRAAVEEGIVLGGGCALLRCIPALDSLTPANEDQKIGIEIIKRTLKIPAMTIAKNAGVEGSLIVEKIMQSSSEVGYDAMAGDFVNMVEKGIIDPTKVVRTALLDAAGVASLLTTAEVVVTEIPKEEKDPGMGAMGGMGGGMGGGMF
Sequence of HSP60/HSP10 (P61604 whole entry, further chain): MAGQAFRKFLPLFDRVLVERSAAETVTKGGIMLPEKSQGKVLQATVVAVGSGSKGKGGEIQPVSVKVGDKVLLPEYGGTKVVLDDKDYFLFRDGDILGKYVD

[8] = target: T2, E. coli GroEL/ES (Escherichia coli, UniProt P0A6F5); experiment: Inhibition of Escherichia coli GroEL/ES-mediated refolding of the denatured rhodanese; type: protein-complex assay
T2 sequence (P0A6F5 whole entry, looked up): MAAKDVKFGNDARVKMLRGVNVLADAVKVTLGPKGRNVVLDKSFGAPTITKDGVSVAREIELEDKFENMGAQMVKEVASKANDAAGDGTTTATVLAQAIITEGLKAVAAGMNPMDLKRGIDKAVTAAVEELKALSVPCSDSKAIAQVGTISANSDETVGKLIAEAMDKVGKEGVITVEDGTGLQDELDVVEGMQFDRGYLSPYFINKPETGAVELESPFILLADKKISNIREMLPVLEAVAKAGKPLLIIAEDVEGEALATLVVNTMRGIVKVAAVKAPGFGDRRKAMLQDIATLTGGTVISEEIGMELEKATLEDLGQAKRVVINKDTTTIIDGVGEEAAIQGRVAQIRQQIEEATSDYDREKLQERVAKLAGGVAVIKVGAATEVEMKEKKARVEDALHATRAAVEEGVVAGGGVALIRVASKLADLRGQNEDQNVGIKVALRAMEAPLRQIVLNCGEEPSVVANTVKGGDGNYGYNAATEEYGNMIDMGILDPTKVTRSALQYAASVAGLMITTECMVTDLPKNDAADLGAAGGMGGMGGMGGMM

[9] = test system: HT-29; experiment: Cytotoxicity against human HT-29 cells assessed as reduction in cell viability measured after 48 hrs by AlamarBlue assay; type: functional, cell-based; details: HT-29, 48 h
[10] = Cytotoxicity against human THLE-3 cells assessed as reduction in cell viability measured after 48 hrs by AlamarBlue assay; type: cell-based; details: for CC50 at 48 h: THLE-3 cells; for CC50: thle-3, 48 h
[11] = test system: HCT-116; experiment: Cytotoxicity against human HCT-116 cells assessed as reduction in cell viability measured after 48 hrs by AlamarBlue assay; type: functional, cell-based; details: HCT-116, 48 h
[12] = target: T2, E. coli GroEL/ES; experiment: Inhibition of Escherichia coli GroEL/ES-mediated refolding of the denatured malate dehydrogenase; type: protein-complex assay
[13] = test system: HEK293; experiment: as §1; type: cell-based; details: hek293, 48 h

Structure (SMILES) | EC50 [1] [µM] | IC50 [2] [µM] | CC50 [3] [µM] | CC50 at 48 h [4] [µM] | CC50 [5] [µM] | IC50 [6] [µM] | IC50 [7] [µM] | IC50 [8] [µM] | EC50 [9] [µM] | CC50 at 48 h [10] [µM] | EC50 [11] [µM] | IC50 [12] [µM] | CC50 [13] [µM] | CC50 [10] [µM]
O=S(=O)(Nc1ccc(-c2nc3cc(NS(=O)(=O)c4ccc(F)cc4)ccc3o2)cc1)c1ccc(F)cc1 | 18 | > 62.5 | 63 | 31 | 27 | > 100 | 63 | 19 | 17 | 22 | 12 |  |  | 
COc1ccc(S(=O)(=O)Nc2ccc3oc(-c4ccc(NS(=O)(=O)c5cc(Br)ccc5OC)cc4)nc3c2)cc1 | 15 | > 62.5 | > 100 |  | > 100 | > 100 | 67 | 22 | 14 |  | 12 | 27 | 18 | 16
O=S(=O)(Nc1ccc(-c2nc3cc(NS(=O)(=O)c4ccc(Cl)s4)ccc3o2)cc1)c1ccc(Cl)s1 | 33 | 57 | 65 | 41 | 43 |  | 6.5 |  | 33 | 48 | 15 | 2.8 |  | 
O=S(=O)(Nc1ccc(-c2nc3cc(NS(=O)(=O)c4cccc(C(F)(F)F)c4)ccc3o2)cc1)c1cccc(C(F)(F)F)c1 |  | > 62.5 | > 100 | 23 | 56 |  | 54 |  |  | 24 | 14 | 14 |  | 
O=S(=O)(Nc1ccc(-c2nc3cc(NS(=O)(=O)c4ccc(C(F)(F)F)cc4)ccc3o2)cc1)c1ccc(C(F)(F)F)cc1 | 10 | > 62.5 | 69 | 29 | 57 | > 100 | 57 | 34 | 13 | 21 | 15 | 19 |  | 
COc1ccc(S(=O)(=O)Nc2ccc3oc(-c4ccc(NS(=O)(=O)c5cc(F)ccc5OC)cc4)nc3c2)cc1 | 18 | > 62.5 | > 100 |  | > 100 | > 100 | > 100 | 30 | 15 |  | 15 | 18 | 24 | 25
COc1c(Br)cccc1C(=O)Nc1ccc(Sc2nc3ccccc3s2)cc1 | 40 | > 62.5 |  | > 100 |  |  |  |  | 30 | > 100 | 31 |  |  | 
O=C(Nc1ccc(Sc2nc3ccccc3s2)cc1)c1cccc(Br)c1O | 12 | > 62.5 | 75 | 33 | 59 |  | > 100 | 37 | 9.3 | 12 | 8.9 | 42 |  | 
COc1ccc(S(=O)(=O)Nc2ccc(-c3nc4cc(NS(=O)(=O)c5ccc(OC)cc5)ccc4o3)cc2)cc1 | 28 | > 62.5 | 40 | 48 | 57 | > 100 |  | 56 | 40 | 60 | 12 | 30 |  | 
Nc1ccc(S(=O)(=O)Nc2ccc(-c3nc4cc(NS(=O)(=O)c5ccc(N)cc5)ccc4o3)cc2)cc1 | 47 | > 62.5 | 53 | 63 | 65 | > 100 | 44 | 3.1 | 24 | 39 | 17 |  |  | 
O=S(=O)(Nc1ccc(-c2nc3cc(NS(=O)(=O)c4ccc(Cl)s4)ccc3o2)cc1)c1ccc(Cl)c(C(F)(F)F)c1 |  | > 62.5 | 56 | 34 | 63 |  | 6.7 | 8.3 | 21 | 21 | 17 | 2.8 |  | 
O=C(Nc1ccc(Sc2nc3ccccc3s2)cc1)c1cc(Br)cc(Br)c1O | 20 | 6.6 | 75 | 69 | 74 |  | 5.9 | 2.2 | 21 | 19 | 19 | 3.2 |  | 
O=S(=O)(Nc1ccc(-c2nc3cc(NS(=O)(=O)c4ccc(Br)cc4)ccc3o2)cc1)c1ccc(Br)cc1 |  | > 62.5 | > 100 | 22 |  | > 100 |  | 34 | 17 | 18 | 11 | 16 |  | 
O=S(=O)(Nc1ccc(-c2nc3cc(NS(=O)(=O)c4ccccc4)ccc3o2)cc1)c1ccccc1 | 16 | > 62.5 | > 100 | 25 | 30 | > 100 | 86 | 18 | 16 | 23 | 13 |  |  | 
COc1ccccc1S(=O)(=O)Nc1ccc(-c2nc3cc(NS(=O)(=O)c4ccccc4OC)ccc3o2)cc1 | 6.6 | > 62.5 | 81 | 28 | 74 | > 100 | 87 | 33 | 16 | 48 | 9.2 | 43 |  | 
COc1ccc(S(=O)(=O)Nc2ccc3oc(-c4ccc(NC(=O)C5CCN(C(C)=O)CC5)cc4)nc3c2)cc1 | 15 | > 62.5 | 84 |  | > 100 | > 100 | 24 | 61 | 16 |  | 15 | 38 | 34 | 31
Cc1ccc(S(=O)(=O)Nc2ccc(-c3nc4ccc(NS(=O)(=O)c5ccc(C)cc5)cc4[nH]3)cc2)cc1 | 25 | > 62.5 | 96 | 38 | > 100 | > 100 | 79 | 46 | 21 | 22 | 14 | 24 |  | 
O=S(=O)(Nc1ccc(-c2nc3cc(NS(=O)(=O)c4cccc5ccccc45)ccc3o2)cc1)c1cccc2ccccc12 | 34 | > 62.5 | 52 | > 100 |  | > 100 |  | 35 | 31 | 49 | 20 | 43 |  | 
O=S(=O)(Nc1ccc(-c2nc3cc(NS(=O)(=O)c4ccccc4Cl)ccc3o2)cc1)c1ccccc1Cl | 17 | > 62.5 | 38 | 46 | 45 | > 100 |  | 43 | 15 | 25 | 12 | 40 |  | 
